From patent US20250186433A1, “ACSS2 INHIBITORS AND METHODS OF USE THEREOF” (EpiVario, Inc., priority 2017, published 2025)

Molecular target: ACSS2 (Homo sapiens, UniProt Q9NR19)
Assay: biochemical
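Further: Pyrophosphatase-coupled ACSS2 enzyme assay, 10 nM protein incubated 90 min at 37 °C with ATP, CoA and acetate, released phosphate read by Biomol Green absorbance at 620 nm.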

Chain of ACSS2 (Q9NR19 whole entry): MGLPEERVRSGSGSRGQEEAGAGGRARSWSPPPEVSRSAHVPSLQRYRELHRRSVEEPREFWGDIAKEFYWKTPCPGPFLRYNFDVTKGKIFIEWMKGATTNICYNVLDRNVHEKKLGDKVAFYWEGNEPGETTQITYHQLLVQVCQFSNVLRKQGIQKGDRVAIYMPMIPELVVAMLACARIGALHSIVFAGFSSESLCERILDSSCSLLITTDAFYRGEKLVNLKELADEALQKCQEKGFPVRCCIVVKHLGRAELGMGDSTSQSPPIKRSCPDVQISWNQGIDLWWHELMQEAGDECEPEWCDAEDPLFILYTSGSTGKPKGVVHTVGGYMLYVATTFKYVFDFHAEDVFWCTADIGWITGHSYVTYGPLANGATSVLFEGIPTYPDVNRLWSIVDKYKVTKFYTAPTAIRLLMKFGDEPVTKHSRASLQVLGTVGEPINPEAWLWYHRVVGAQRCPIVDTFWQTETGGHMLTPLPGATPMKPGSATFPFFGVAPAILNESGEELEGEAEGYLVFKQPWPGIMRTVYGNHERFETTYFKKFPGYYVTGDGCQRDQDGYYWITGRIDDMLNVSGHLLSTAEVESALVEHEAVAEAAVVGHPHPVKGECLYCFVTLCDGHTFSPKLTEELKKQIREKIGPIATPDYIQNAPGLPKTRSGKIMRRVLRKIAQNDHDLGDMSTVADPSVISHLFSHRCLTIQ

IC50 [nM] | Compound
0.01 to 6 | CCC(F)(F)c1cccc(NC(=O)C2C(=O)N(c3ccc4ccoc4c3)N=C2C)c1 (stereo not shown) [compound 491, 1-(benzofuran-6-yl)-N-(3-(1,1-difluoropropyl)phenyl)-3-methyl-5-oxo-4,5-dihydro-1H-pyrazole-4-carboxamide]
0.01 to 6 | CCC(F)(F)c1cccc(NC(=O)C2C(=O)N(c3ccc(OC)c(-c4cc(C)ccn4)c3)N=C2C)c1 (stereo not shown) [compound 537, N-(3-(1,1-difluoropropyl)phenyl)-1-(4-methoxy-3-(4-methylpyridin-2-yl)phenyl)-3-methyl-5-oxo-4,5-dihydro-1H-pyrazole-4-carboxamide]
100 to 1000 | CC1=NN(c2ccc(OC(F)F)cc2)C(=O)C1C(=O)Nc1ccnc(C#N)c1 (stereo not shown) [compound 504, N-(2-cyanopyridin-4-yl)-1-(4-(difluoromethoxy)phenyl)-3-methyl-5-oxo-4,5-dihydro-1H-pyrazole-4-carboxamide]
0.01 to 6 | CCC(F)(F)c1cccc(NC(=O)C2C(=O)N(c3ccc(OC)c(-c4ncccc4C)c3)N=C2C)c1 (stereo not shown) [compound 535, N-(3-(1,1-difluoropropyl)phenyl)-1-(4-methoxy-3-(3-methylpyridin-2-yl)phenyl)-3-methyl-5-oxo-4,5-dihydro-1H-pyrazole-4-carboxamide]
0.01 to 6 | CCCC(=O)n1ccc2ccc(N3N=C(C)C(C(=O)Nc4cccc(C(F)(F)CC)c4)C3=O)cc21 (stereo not shown) [compound 478, 1-(1-butanoylindol-6-yl)-N-[3-(1,1-difluoropropyl)phenyl]-3-methyl-5-oxo-4H-pyrazole-4-carboxamide]
0.01 to 6 | CCC(F)(F)c1cccc(NC(=O)C2C(=O)N(c3ccc4ccn(S(=O)(=O)c5ccccc5)c4c3)N=C2C)c1 (stereo not shown) [compound 476, N-(3-(1,1-difluoropropyl)phenyl)-3-methyl-5-oxo-1-(1-(phenylsulfonyl)-1H-indol-6-yl)-4,5-dihydro-1H-pyrazole-4-carboxamide]
0.01 to 6 | C/C=C(/F)c1cccc(NC(=O)C2C(=O)N(c3ccc(OC(F)F)cc3)N=C2C)c1 (stereo not shown) [compound 495, (E)-1-(4-(difluoromethoxy)phenyl)-N-(3-(1-fluoroprop-1-en-1-yl)phenyl)-3-methyl-5-oxo-4,5-dihydro-1H-pyrazole-4-carboxamide]
0.01 to 6 | CCC(F)(F)c1cccc(NC(=O)C2C(=O)N(c3ccc(OC)c(-c4cc(C)nc(C)c4)c3)N=C2C)c1 (stereo not shown) [compound 531, N-(3-(1,1-difluoropropyl)phenyl)-1-(3-(2,6-dimethylpyridin-4-yl)-4-methoxyphenyl)-3-methyl-5-oxo-4,5-dihydro-1H-pyrazole-4-carboxamide]
0.01 to 6 | CCC(F)(F)c1cccc(NC(=O)C2C(=O)N(c3ccc(S(C)(=O)=O)cc3)N=C2C)c1 (stereo not shown) [compound 508, N-(3-(1,1-difluoropropyl)phenyl)-3-methyl-1-(4-(methylsulfonyl)phenyl)-5-oxo-4,5-dihydro-1H-pyrazole-4-carboxamide]
0.01 to 6 | CCC(F)(F)c1cccc(NC(=O)C2C(=O)N(c3ccc4ccn(C(=O)c5ccc(O)cc5)c4c3)N=C2C)c1 (stereo not shown) [compound 482, N-(3-(1,1-difluoropropyl)phenyl)-1-(1-(4-hydroxybenzoyl)-1H-indol-6-yl)-3-methyl-5-oxo-4,5-dihydro-1H-pyrazole-4-carboxamide]
0.01 to 6 | CCC(F)(F)c1cccc(NC(=O)C2C(=O)N(c3ccc(OC)c(-c4ccc(C)cn4)c3)N=C2C)c1 (stereo not shown) [compound 534, N-(3-(1,1-difluoropropyl)phenyl)-1-(4-methoxy-3-(5-methylpyridin-2-yl)phenyl)-3-methyl-5-oxo-4,5-dihydro-1 H-pyrazole-4-carboxamide]
0.01 to 6 | CCC(F)(F)c1cccc(NC(=O)C2C(=O)N(c3ccc(C#N)cc3)N=C2C)c1 (stereo not shown) [compound 501, 1-(4-cyanophenyl)-N-(3-(1,1-difluoropropyl)phenyl)-3-methyl-5-oxo-4,5-dihydro-1H-pyrazole-4-carboxamide]
0.01 to 6 | CCC(F)(F)c1cccc(NC(=O)C2C(=O)N(c3ccc4cccnc4c3)N=C2C)c1 (stereo not shown) [compound 474, N-(3-(1,1-difluoropropyl)phenyl)-3-methyl-5-oxo-1-(quinolin-7-yl)-4,5-dihydro-1H-pyrazole-4-carboxamide]
6 to 100 | COc1ccccc1Cc1cc(-c2cccnc2)cc(N2N=C(C)C(C(=O)Nc3cccc(C(C)(F)F)c3)C2=O)c1 (stereo not shown) [compound 466]
6 to 100 | CC1=NN(c2cc(-c3cccnc3)cc(-c3ccc4cc[nH]c4c3)c2)C(=O)C1C(=O)Nc1cccc(C(C)(F)F)c1 (stereo not shown) [compound 473]
6 to 100 | CCC(F)(F)c1cccc(NC(=O)C2C(=O)N(c3ccc4cnn(S(=O)(=O)c5ccc(C)cc5)c4c3)N=C2C)c1 (stereo not shown) [compound 487, N-[3-(1,1-difluoropropyl)phenyl]-3-methyl-5-oxo-1-[1-(p-tolylsulfonyl)indazol-6-yl]-4H-pyrazole-4-carboxamide]
0.01 to 6 | CC1=NN(c2ccc(OC(F)F)cc2)C(=O)C1C(=O)Nc1cccc(C(F)(F)C2CC2)c1 (stereo not shown) [compound 481, N-(3-(cyclopropyldifluoromethyl)phenyl)-1-(4-(difluoromethoxy)phenyl)-3-methyl-5-oxo-4,5-dihydro-1H-pyrazole-4-carboxamide]

IC50 [nM] | Compound
0.01 to 6 | CCC(F)(F)c1cccc(NC(=O)C2C(=O)N(c3ccc4ccsc4c3)N=C2C)c1 (stereo not shown) [compound 485, 1-(benzo[b]thiophen-6-yl)-N-(3-(1,1-difluoropropyl)phenyl)-3-methyl-5-oxo-4,5-dihydro-1H-pyrazole-4-carboxamide]
6 to 100 | CCC(F)(F)c1cccc(NC(=O)C2C(=O)N(c3ccc4ccn(C(=O)c5cccc(C)c5)c4c3)N=C2C)c1 (stereo not shown) [compound 483, N-[3-(1,1-difluoropropyl)phenyl]-3-methyl-1-[1-(3-methylbenzoyl)indol-6-yl]-5-oxo-4H-pyrazole-4-carboxamide]
0.01 to 6 | CCC(F)(F)c1cccc(NC(=O)C2C(=O)N(c3cccc4occc34)N=C2C)c1 (stereo not shown) [compound 492, 1-(benzofuran-4-yl)-N-(3-(1,1-difluoropropyl)phenyl)-3-methyl-5-oxo-4,5-dihydro-1H-pyrazole-4-carboxamide]
6 to 100 | COc1cccc(Cc2cc(-c3cccnc3)cc(N3N=C(C)C(C(=O)Nc4cccc(C(C)(F)F)c4)C3=O)c2)c1 (stereo not shown) [compound 461]
6 to 100 | CC1=NN(c2cc(-c3cccnc3)cc(-c3cccc4[nH]ccc34)c2)C(=O)C1C(=O)Nc1cccc(C(C)(F)F)c1 (stereo not shown) [compound 465]
0.01 to 6 | CCC(F)(F)c1cccc(NC(=O)C2C(=O)N(c3ccc4cc(C)n(C)c4c3)N=C2C)c1 (stereo not shown) [compound 502, N-[3-(1,1-difluoropropyl)phenyl]-1-(1,2-dimethylindol-6-yl)-3-methyl-5-oxo-4H-pyrazole-4-carboxamide]
100 to 1000 | CON(C)C(=O)C(F)(F)c1cccc(NC(=O)C2C(=O)N(c3ccc(OC(F)F)c(-c4ccccn4)c3)N=C2C)c1 (stereo not shown) [compound 471, N-(3-(1,1-difluoro-2-(methoxy(methyl)amino)-2-oxoethyl)phenyl)-1-(4-(difluoromethoxy)-3-(pyridin-2-yl)phenyl)-3-methyl-5-oxo-4,5-dihydro-1H-pyrazole-4-carboxamide]
0.01 to 6 | CCC(F)(F)c1cccc(NC(=O)C2C(=O)N(c3ccc4ccn(C(=O)c5cccc(O)c5)c4c3)N=C2C)c1 (stereo not shown) [compound 493, N-(3-(1,1-difluoropropyl)phenyl)-1-(1-(3-hydroxybenzoyl)-1H-indol-6-yl)-3-methyl-5-oxo-4,5-dihydro-1H-pyrazole-4-carboxamide]
100 to 1000 | CC1=NN(c2ccc(OC(F)F)cc2)C(=O)C1C(=O)Nc1cncc(C#N)c1 (stereo not shown) [compound 503, N-(5-cyanopyridin-3-yl)-1-(4-(difluoromethoxy)phenyl)-3-methyl-5-oxo-4,5-dihydro-1H-pyrazole-4-carboxamide]
6 to 100 | CCC(F)(F)c1ccnc(NC(=O)C2C(=O)N(c3ccc(OC(F)F)cc3)N=C2C)c1 (stereo not shown) [compound 484, 1-(4-(difluoromethoxy)phenyl)-N-(4-(1,1-difluoropropyl)pyridin-2-yl)-3-methyl-5-oxo-4,5-dihydro-1H-pyrazole-4-carboxamide]
0.01 to 6 | CCC(F)(F)c1cccc(NC(=O)C2C(=O)N(c3ccc4ccn(C)c4c3)N=C2C)c1 (stereo not shown) [compound 462, N-[3-(1,1-difluoropropyl)phenyl]-3-methyl-1-(1-methylindol-6-yl)-5-oxo-4H-pyrazole-4-carboxamide]
6 to 100 | CCC(F)(F)c1cc(NC(=O)C2C(=O)N(c3ccc(OC(F)F)cc3)N=C2C)ccn1 (stereo not shown) [compound 506, 1-(4-(difluoromethoxy)phenyl)-N-(2-(1,1-difluoropropyl)pyridin-4-yl)-3-methyl-5-oxo-4,5-dihydro-1H-pyrazole-4-carboxamide]
0.01 to 6 | CCC(F)(F)c1cccc(NC(=O)C2C(=O)N(c3cnc(Cl)cn3)N=C2C)c1 (stereo not shown) [compound 489, 1-(5-chloropyrazin-2-yl)-N-(3-(1,1-difluoropropyl)phenyl)-3-methyl-5-oxo-4,5-dihydro-1H-pyrazole-4-carboxamide]
6 to 100 | CCC(F)(F)c1cccc(NC(=O)C2C(=O)N(c3ccc4ccnnc4c3)N=C2C)c1 (stereo not shown) [compound 524, 1-(cinnolin-7-yl)-N-(3-(1,1-difluoropropyl)phenyl)-3-methyl-5-oxo-4,5-dihydro-1H-pyrazole-4-carboxamide]
0.01 to 6 | CCC(F)(F)c1cccc(NC(=O)C2C(=O)N(c3cc4[nH]ccc4cn3)N=C2C)c1 (stereo not shown) [compound 507, N-(3-(1,1-difluoropropyl)phenyl)-3-methyl-5-oxo-1-(1H-pyrrolo[3,2-c]pyridin-6-yl)-4,5-dihydro-1H-pyrazole-4-carboxamide]
0.01 to 6 | CCC(F)(F)c1cccc(NC(=O)C2C(=O)N(c3ccc4ccn(C(=O)c5ccccc5)c4c3)N=C2C)c1 (stereo not shown) [compound 475, 1-(1-benzoylindol-6-yl)-N-[3-(1,1-difluoropropyl)phenyl]-3-methyl-5-oxo-4H-pyrazole-4-carboxamide]
0.01 to 6 | CCC(F)(F)c1cccc(NC(=O)C2C(=O)N(c3ccc4nccnc4c3)N=C2C)c1 (stereo not shown) [compound 488, N-(3-(1,1-difluoropropyl)phenyl)-3-methyl-5-oxo-1-(quinoxalin-6-yl)-4,5-dihydro-1H-pyrazole-4-carboxamide]
